In patent US10358458B2, “4′-vinyl substituted nucleoside derivatives as inhibitors of respiratory syncytial virus RNA replication” (Riboscience LLC, priority 2014, dated 2019):

Target: T1, RSV polymerase (Human respiratory syncytial virus A, UniProt P28887)
T1 construct: RSV polymerase was obtained from RSV infected A549 cells; endogenous in cells; host or cells: RSV infected A549 cells (virus-encoded polymerase, detergent preparation)
Experiment: RSV polymerase assay (inhibition of RNA synthesis by RSV polymerase)
Type: biochemical
Conditions: nucleoside triphosphate analogs; RSV polymerase from RSV infected A549 cells; 33P-CTP incorporation into nascent RSV RNA
Method: The RSV polymerase assay measures the ability of the nucleoside triphosphates derived from compounds of formula I to inhibit the RSV polymerase. RSV polymerase was obtained from RSV infected A549 cells. RSV polymerase activity was measured using RSV polymerase preparation (stored in 10 mM Tris-acetate (pH 8), 10 mM K-acetate, 1.5 mM MgCl2, 0.5% deoxycholate and 1% Tween-40) in the a buffer containing 50 mM Tris-HCL, pH8, 100 mM KCl, 5 mM MgCl2, 1 mM DTT and 0.2 mg/ml BSA in the presence of 50 μM ATP, GTP and UTP, 1 μM CTP and 3.5 μCi ^33P-labeled CTP (10 mCi/mL). The amount of nucleotides incorporated into nascent RSV RNA was determined TCA precipitation and scintillation counting.
The polymerase and replication activities of RSV were measured in the presence and absence of different concentrations of compounds to determine the degree of inhibition by the compounds.
The compound concentration at which the enzyme-catalyzed rate is reduced by 50% (IC50) was calculated by fitting the data to equation (1),
[formula] where “Y” corresponds to the relative enzyme activity (in %), “% Min” is the residual relative activity at saturating compound concentration, “% Max” is the relative maximum enzymatic activity, X corresponds to the compound concentration, and “S” is the Hill coefficient (or slope).

T1 sequence (P28887 whole entry): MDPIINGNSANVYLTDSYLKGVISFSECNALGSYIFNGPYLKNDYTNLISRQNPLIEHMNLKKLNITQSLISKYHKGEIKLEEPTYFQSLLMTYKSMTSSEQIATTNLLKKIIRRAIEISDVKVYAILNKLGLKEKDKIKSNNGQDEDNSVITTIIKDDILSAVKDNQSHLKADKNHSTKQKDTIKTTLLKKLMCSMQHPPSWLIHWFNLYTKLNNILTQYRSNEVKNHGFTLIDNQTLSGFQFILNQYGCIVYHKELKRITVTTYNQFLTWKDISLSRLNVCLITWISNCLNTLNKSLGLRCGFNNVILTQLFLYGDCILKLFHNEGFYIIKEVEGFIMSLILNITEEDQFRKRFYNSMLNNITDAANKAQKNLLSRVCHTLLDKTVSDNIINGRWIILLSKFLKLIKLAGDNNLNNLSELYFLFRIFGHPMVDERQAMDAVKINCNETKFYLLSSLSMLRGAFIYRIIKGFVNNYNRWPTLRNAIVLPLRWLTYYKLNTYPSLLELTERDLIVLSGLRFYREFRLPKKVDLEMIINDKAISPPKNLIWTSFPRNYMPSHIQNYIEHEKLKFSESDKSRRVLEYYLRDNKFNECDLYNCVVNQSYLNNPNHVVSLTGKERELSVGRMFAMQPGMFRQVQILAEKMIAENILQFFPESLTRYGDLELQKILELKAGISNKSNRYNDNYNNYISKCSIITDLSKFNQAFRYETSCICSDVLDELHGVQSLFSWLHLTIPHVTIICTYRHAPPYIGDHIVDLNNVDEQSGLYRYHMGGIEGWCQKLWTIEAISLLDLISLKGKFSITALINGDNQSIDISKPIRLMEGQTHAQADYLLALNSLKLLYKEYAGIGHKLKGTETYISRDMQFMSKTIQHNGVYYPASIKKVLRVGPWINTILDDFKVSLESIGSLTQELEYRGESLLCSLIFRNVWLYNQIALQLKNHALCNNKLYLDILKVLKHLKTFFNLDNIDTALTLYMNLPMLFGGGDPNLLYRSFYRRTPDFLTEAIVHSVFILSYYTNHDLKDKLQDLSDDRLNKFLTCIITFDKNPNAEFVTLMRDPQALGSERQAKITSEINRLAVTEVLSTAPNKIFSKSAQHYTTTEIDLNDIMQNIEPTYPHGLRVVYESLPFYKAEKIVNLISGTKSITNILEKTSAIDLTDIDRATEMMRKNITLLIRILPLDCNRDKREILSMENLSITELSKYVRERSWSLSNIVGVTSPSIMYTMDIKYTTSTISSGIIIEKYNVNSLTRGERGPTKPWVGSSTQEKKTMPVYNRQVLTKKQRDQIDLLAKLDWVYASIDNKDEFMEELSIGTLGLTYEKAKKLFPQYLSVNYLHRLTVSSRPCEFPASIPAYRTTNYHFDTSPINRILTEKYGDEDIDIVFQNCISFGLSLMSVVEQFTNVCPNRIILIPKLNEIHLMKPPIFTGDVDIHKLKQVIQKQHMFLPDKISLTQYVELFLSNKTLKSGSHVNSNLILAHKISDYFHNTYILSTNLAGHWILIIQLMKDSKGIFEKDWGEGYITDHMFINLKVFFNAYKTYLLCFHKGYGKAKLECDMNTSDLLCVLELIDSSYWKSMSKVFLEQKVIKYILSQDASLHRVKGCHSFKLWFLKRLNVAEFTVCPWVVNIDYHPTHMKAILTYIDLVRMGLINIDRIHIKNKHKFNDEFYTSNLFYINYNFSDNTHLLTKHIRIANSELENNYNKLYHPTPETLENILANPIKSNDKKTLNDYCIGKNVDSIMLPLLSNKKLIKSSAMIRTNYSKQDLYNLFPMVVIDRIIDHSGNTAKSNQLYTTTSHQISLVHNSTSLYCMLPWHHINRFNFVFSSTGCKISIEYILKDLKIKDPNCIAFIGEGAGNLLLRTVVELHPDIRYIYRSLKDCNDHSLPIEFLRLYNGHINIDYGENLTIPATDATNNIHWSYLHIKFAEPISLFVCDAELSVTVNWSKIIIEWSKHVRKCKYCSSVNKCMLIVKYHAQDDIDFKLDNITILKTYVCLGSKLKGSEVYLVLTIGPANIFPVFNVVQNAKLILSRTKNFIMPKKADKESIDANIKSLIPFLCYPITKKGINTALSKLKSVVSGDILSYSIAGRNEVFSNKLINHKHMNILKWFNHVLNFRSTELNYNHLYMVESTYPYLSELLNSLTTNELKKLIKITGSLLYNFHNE
T1 sequence (P03421 whole entry, further chain): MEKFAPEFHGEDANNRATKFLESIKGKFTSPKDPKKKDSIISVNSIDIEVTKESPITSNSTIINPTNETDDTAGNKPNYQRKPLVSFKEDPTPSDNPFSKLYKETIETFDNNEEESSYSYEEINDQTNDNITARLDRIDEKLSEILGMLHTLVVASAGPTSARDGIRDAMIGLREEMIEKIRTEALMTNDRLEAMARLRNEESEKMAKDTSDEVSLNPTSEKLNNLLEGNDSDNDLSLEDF

With C=C[C@]1(COP(=O)(O)OP(=O)(O)OP(=O)(O)O)O[C@@H](n2ccc(=O)[nH]c2=O)[C@H](O)[C@@H]1O [II-1] as the compound, how does the IC50 read?
Its IC50 is under 1 µM.

C=C[C@]1(COP(=O)(O)OP(=O)(O)OP(=O)(O)O)O[C@@H](n2cnc3c(N)ncnc32)[C@H](O)[C@@H]1O [II-3] was tested. Which IC50 did it give?
The IC50 was under 1 µM.

How did the IC50 turn out when C=C[C@]1(COP(=O)(O)OP(=O)(O)OP(=O)(O)O)O[C@@H](n2ccc(N)nc2=O)[C@H](O)[C@@H]1O [II-2] was run?
Its IC50 is under 1 µM.
